Measurements reported in US20190000079A1, “Methods and Formulation for Treatment of Nuts, Seeds, Grains, Cereals, Plant Growth Media, and Plants” (Lipotec Laboratories, LLC, priority 2015, published 2019).

Legend:
Assay in all cases: Growth experiment, coated vs uncoated seeds planted in soil
[1] = test system: soybeans; type: in vivo, soybean
Description: (§1) Groups of coated and uncoated soybeans, corn, sunflower, and turfgrass were planted in soil and monitored for germination.

[2] = test system: corn; type: in vivo
Description: as §1

[3] = test system: sunflower; type: in vivo
Description: as §1

COc1cc(/C=C/C(=O)CC(=O)/C=C/c2ccc(O)c(OC)c2)ccc1O [curcumin, Curcumin]
2 days: germination time of coated seeds ([1]; soybean seeds coated with DMSO and curcumin, planted in soil, same as uncoated) | germination time of coated seeds ([2]; corn seeds coated with DMSO and curcumin, planted in soil, same as uncoated) | germination time of coated seeds ([3]; sunflower seeds coated with DMSO and curcumin, planted in soil, same as uncoated)
equal height and diameter: height and diameter, coated vs uncoated ([1]; soybean, after 3 weeks) | height and diameter, coated vs uncoated ([2]; corn, after 3 weeks) | height and diameter, coated vs uncoated ([3]; sunflower, after 3 weeks)
